Results published in US7790885B2, “Process for preparing phenoxypyridine derivatives” (Eisai R&D Management Co., Ltd., priority 2006, dated 2010).

Legend:
[1] = tested on: Human gastric cancer cells (MKN-45); test: Inhibitory activity against the proliferation of human gastric cancer cells (MKN-45); type: cell-based; conditions: 72 h, read-out: IC50 (concentration necessary to inhibit the cell proliferation by 50%), MKN-45 cells, 1% FBS-containing RPMI1640, 3 days, Cell Counting Kit-8
Protocol: Human gastric cancer cells (MKN-45) were suspended in a 1% FBS-containing RPMI1640 medium (purchased from Sigma). The cell suspension (1×10^4 cells/ml) was added in a 96-well plate for cell culture (purchased from NUNC, Production No. 167008) at 0.1 ml/well, and then cultured in a 5% CO2 incubator (37° C.) overnight. After the culture, each well was supplied with 0.1 ml of a test substance diluted with a 1% FBS-containing RPMI1640 medium, followed by culturing in a 5% CO2 incubator (37° C.) for 3 days. After the culture, each well was supplied with 10 μl of Cell Counting Kit-8 (purchased from DOJINDO, Production No. 343-07623), followed by incubation in a 5% CO2 incubator (37° C.) for about 1.5 hrs. After the incubation, using the Plate Reader MTP-500 (Corona Electric), the absorbance of each well was determined at a measurement wavelength of 450 nm and a reference wavelength of 660 nm.

HGFR [2] = target: T1, HGFR (Homo sapiens, UniProt P08581); test: Inhibitory activity against HGFR tyrosine kinase activity (HTRF); type: biochemical; design: His6-HGFR, the HGFR cytoplasmic domain fused with six histidine at the N terminus; made in house; host or cells: Sf9 insect cells (baculovirus, pFastBac-HT); conditions: His6-HGFR cytoplasmic domain, biotin-poly(GT) substrate, ATP, 30° C. for 10 min
Source text: The DNA fragment was isolated from the human placental cDNA library (purchased from Clontech) by PCR (TaKaRa Ex Taq™ Kit, purchased from TaKaRa) using two kinds of primers (SEQ ID NO: 1,5′-[…]-3′ and SEQ ID NO: 2,5′-[…]-3′, purchased from Invitrogen). The DNA fragment was cloned into a baculovirus transplace vector (pFastBac™-HT (purchased from GIBCO BRL)) to produce a recombinant construct. […] EGFR was purchased from Sigma (Production No. E-2645).
To the suspension of Sf9 cells (3×10^8 cells) in SF-900II medium (purchased from Invitrogen) containing 2% FBS was added a solution of HGFR transfected baculovirus above (4 ml), followed by a shaking culture at 27° C. for 48 hrs. The cells infected with the HGFR transfected baculovirus were centrifuged at 1,000 rpm, 4° C. for 5 min to remove the supernatant. The precipitated infected cells were suspended in 80 ml of ice-cold PBS, and centrifuged at 1,000 rpm, 4° C. for 5 min to remove the supernatant. The precipitated infected cells were suspended in 40 ml of ice-cold Lysis Buffer (50 mM Tris-HCl (pH 8.5), 5 mM 2-mercaptoethanol, 100 mM KCl, 1 mM PMSF and 1% (v/v) NP-40). The suspension was centrifuged at 12,000 rpm, 4° C. for 30 min to provide a supernatant.
The supernatant was loaded onto an Ni-NTA agarose column (3 ml, purchased from Qiagen) equilibrated with 30 ml of Buffer A (20 mM Tris-HCl (pH 8.5), 5 mM 2-mercaptoethanol, 500 mM KCl, 20 mM imidazole and 10% (v/v) glycerol). The column was washed with 30 ml of Buffer A, 6 ml of Buffer B (20 mM Tris-HCl (pH 8.5), 5 mM 2-mercaptoethanol, 1 M KCl, and 10% (v/v) glycerol) and 6 ml of Buffer A in this order. Then, the column was eluted with 6 ml of Buffer C (20 mM Tris-HCl (pH 8.5), 5 mM 2-mercaptoethanol, 100 mM KCl, 100 mM imidazole, and 10% (v/v) glycerol) to provide a fraction. The fraction was entrapped in a dialysis membrane (purchased from Spectrum Laboratories), dialyzed at 4° C. overnight with 1 L of dialysis buffer (20 mM Tris-HCl (pH 7.5), 10% (v/v) glycerol, 1 mM dithiothreitol, 0.1 mM Na3VO4 and 0.1 mM EGTA), and stored at −80° C. until used. […] The VEGFR2 cytoplasmic domain, the FGFR1 cytoplasmic domain, and the PDGFRβ cytoplasmic domain were fused with six histidine at the N terminus by the similar method to produce respective recombinant proteins (His6-VEGFR2, His6-FGFR1, and His6-PDGFRβ).
The tyrosine-phosphorylated biotin-poly(GT) was detected using the Homogenous Time-Resolved Fluorescence (HTRF) method (Analytical Biochemistry, 269, 94-104, 1999).
Target sequence in this assay (P08581 956-1390 limits assumed): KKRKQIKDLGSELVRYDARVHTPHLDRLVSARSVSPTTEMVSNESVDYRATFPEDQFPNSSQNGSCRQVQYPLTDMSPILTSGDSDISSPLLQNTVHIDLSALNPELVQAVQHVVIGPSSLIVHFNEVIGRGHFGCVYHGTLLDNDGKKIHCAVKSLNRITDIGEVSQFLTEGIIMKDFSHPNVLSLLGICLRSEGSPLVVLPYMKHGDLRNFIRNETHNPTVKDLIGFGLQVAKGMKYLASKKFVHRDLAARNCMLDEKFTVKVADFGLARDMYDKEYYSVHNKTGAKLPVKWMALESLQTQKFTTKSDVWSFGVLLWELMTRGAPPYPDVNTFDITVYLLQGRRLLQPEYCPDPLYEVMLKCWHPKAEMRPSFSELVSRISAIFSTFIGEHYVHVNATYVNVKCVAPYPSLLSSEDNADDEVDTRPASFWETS

HGFR [3] = target: T1, HGFR; test: Inhibitory activity against the HGFR autophosphorylation using ELISA; type: cell-based; design: endogenous in cells; host or cells: MKN-45 human gastric cancer cells; conditions: MKN-45 cells, test substance 1 hr, cell extract
Protocol: Human gastric cancer cells (MKN-45) were suspended in a 1% FBS-containing RPMI1640 medium (purchased from Sigma). […] After the culture, from each well was removed the supernatant, followed by adding 0.05 ml of a 1% FBS-containing RPMI1640 medium. Then, the well was supplied with 0.05 ml of the test substance dissolved in dimethyl sulfoxide (diluted with a 1% FBS-containing RPMI1640 medium), followed by culturing in a 5% CO2 incubator (37° C.) for 1 hr. From each well was removed the supernatant, and each well was washed with 150 μl of PBS, followed by adding 100 μl of a lysis buffer (50 mM Hepes (pH 7.4), 150 mM NaCl, 10% (v/v) glycerol, 1% Triton X-100, 1.5 mM MgCl2, 1 mM EDTA (pH 8.0), 100 mM NaF, 1 mM PMSF, 10 μg/ml Aprotinin, 50 μg/ml Leupeptin, 1 μg/ml Pepstatin A and 1 mM Na3VO4). The plate was shaken at 4° C. for 1 hr to prepare the cell extract.
To a 96-well plate for ELISA (purchased from COSTAR, Production No. 3369) was added 50 μl of 60 mM bicarbonate buffer (pH 9.6) containing 50 μg/ml of an anti-phosphotyrosine antibody (PY20, purchased from Transduction Laboratory, Production No. P-11120). The plate was incubated at 4° C. overnight.
Each well of the plate prepared in 2. was washed three times with 200 μl of PBS, and supplied with 150 μl of 3% BSA/PBS, followed by incubating at room temperature for 2 hrs. Each well was washed three times with 200 μl of PBS, and supplied with 50 μl of the above cell extract, followed by incubating at 4° C. overnight. After the incubation, each well was washed three times with 250 μl of a washing solution (0.1% BSA, 20 mM Tris-HCl (pH 7.6), 137 mM NaCl, and 0.05% Tween-20), and supplied with 70 μl of anti-HGFR antibody (h-Met(C-12), purchased from Santa Cruz, Production No. sc-10) 2,000-fold diluted with a reaction solution (1% BSA, 20 mM Tris-HCl (pH 7.6), 137 mM NaCl and 0.05% Tween-20), followed by incubating at room temperature for 1 hr. The well was washed three times with 250 μl of the washing solution, and supplied with 70 μl of peroxidase-labelled anti-rabbit IgG antibody (purchased from Cell Signaling, Production No. 7074) 2,000-fold diluted with the reaction solution, followed by incubating at room temperature for 1 hr. […] Each well was supplied with 70 μl of 1 M phosphoric acid, and using the Plate Reader MTP-500 (Corona Electric), the absorbance of the well was instantly determined at a measurement wavelength of 450 nm. While defining the absorbance of a well supplied with the cell extract having no test substance as 100% HGFR autophosphorylation activity, and the absorbance of a well supplied with 50 μl of the lysis buffer as 0% HGFR autophosphorylation activity, the HGFR autophosphorylation activity (%) was calculated for each well.
Target sequence in this assay (P08581 25-1390): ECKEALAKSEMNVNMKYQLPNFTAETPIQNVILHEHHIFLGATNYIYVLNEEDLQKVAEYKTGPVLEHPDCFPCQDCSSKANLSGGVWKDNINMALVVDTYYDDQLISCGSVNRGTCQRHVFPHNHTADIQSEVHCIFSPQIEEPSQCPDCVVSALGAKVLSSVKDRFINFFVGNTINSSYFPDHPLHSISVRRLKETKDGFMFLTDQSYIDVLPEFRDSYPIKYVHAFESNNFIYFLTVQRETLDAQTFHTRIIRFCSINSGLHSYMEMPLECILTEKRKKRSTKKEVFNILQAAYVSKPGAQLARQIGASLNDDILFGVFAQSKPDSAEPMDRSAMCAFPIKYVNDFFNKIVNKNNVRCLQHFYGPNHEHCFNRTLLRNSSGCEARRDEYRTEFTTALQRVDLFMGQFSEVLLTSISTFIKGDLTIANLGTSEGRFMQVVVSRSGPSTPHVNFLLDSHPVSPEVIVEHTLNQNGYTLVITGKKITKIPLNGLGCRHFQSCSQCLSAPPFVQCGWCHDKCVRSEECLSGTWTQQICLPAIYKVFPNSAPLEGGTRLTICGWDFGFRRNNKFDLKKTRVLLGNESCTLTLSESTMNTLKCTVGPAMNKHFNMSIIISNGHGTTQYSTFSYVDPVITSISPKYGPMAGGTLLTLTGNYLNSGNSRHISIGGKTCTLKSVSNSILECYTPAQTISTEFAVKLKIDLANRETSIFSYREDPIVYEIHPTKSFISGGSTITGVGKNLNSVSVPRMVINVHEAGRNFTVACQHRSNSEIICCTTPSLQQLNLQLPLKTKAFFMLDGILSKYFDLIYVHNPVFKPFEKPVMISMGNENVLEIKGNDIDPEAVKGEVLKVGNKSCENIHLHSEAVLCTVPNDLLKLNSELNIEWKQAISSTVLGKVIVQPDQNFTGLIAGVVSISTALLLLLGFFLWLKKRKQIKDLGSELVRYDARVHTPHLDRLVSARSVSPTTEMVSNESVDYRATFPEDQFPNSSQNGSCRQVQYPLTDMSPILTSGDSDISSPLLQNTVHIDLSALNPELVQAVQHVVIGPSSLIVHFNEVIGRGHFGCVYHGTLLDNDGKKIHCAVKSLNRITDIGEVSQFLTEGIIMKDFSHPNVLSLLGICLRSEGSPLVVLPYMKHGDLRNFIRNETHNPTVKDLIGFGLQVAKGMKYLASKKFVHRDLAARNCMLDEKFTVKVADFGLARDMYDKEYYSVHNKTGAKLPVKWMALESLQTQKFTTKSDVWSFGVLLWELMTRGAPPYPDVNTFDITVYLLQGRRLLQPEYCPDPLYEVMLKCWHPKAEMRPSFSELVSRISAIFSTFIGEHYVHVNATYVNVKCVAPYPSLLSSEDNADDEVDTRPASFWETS

Question: With CN1CCN(C2CCN(C(=O)Nc3cc(Oc4ccc(NC(=O)C5(C(=O)Nc6ccc(F)cc6)CC5)c(F)c4)ccn3)CC2)CC1 [Example 9, N-(2-Fluoro-4-{[2-({[4-(4-methylpiperazin-1-yl)piperidin-1-yl]carbonyl}amino)pyridin-4-yl]oxy}phenyl)-N′-(4-fluorophenyl)cyclopropane-1,1-dicarboxamide] as the molecule, how does the IC50 [1] read?
Answer: 17 nM

Question: O=C(Nc1cc(Oc2cc(F)c(NC(=O)C3(C(=O)Nc4ccc(F)cc4)CC3)cc2F)ccn1)N1CC(O)C1 [Example 16, N-{2,5-Difluoro-4-[(2-{[(3-hydroxyazetidin-1-yl)carbonyl]amino}pyridin-4-yl)oxy]phenyl}-N′-(4-fluorophenyl)cyclopropane-1,1-dicarboxamide] was tested. Which IC50 (HGFR [2]) did it give?
Answer: 4 nM

Question: What about the IC50 [1] of the same molecule?
Answer: 5 nM

Question: What about the IC50 (HGFR [3]) of the same molecule?
Answer: 8.4 nM

Question: Which IC50 (HGFR [2]) does the source give for CN1CCC(N(C)C(=O)Nc2cc(Oc3cc(F)c(NC(=O)C4(C(=O)Nc5ccc(F)cc5)CC4)cc3F)ccn2)CC1 [Example 19] here?
Answer: 49 nM

Question: And the IC50 [1]?
Answer: 4.9 nM

Question: What about the IC50 (HGFR [3]) of the same molecule?
Answer: 11 nM

Question: O=C(Nc1cc(Oc2cc(F)c(NC(=O)C3(C(=O)Nc4ccc(F)cc4)CC3)cc2F)ccn1)N1CC[C@H](O)C1 [Example 22, N-{2,5-Difluoro-4-[(2-{[((S)-3-hydroxypyrrolidin-1-yl)carbonyl]amino}pyridin-4-yl)oxy]phenyl}-N′-(4-fluorophenyl)cyclopropane-1,1-dicarboxamide] was tested. Which IC50 (HGFR [2]) did it give?
Answer: 16 nM

Question: What about the IC50 [1] of the same molecule?
Answer: 2.4 nM

Question: What about the IC50 (HGFR [3]) of the same molecule?
Answer: 4.5 nM

Question: With O=C(Nc1cc(Oc2cc(F)c(NC(=O)C3(C(=O)Nc4ccc(F)cc4)CC3)cc2F)ccn1)N1CC[C@@H](O)C1 [Example 25, N-{2,5-Difluoro-4-[(2-{[((R)-3-hydroxypyrrolidin-1-yl)carbonyl]amino}pyridin-4-yl)oxy]phenyl}-N′-(4-fluorophenyl)cyclopropane-1,1-dicarboxamide] as the molecule, how does the IC50 (HGFR [2]) read?
Answer: 10 nM

Question: What about the IC50 [1] of the same molecule?
Answer: 2.2 nM

Question: What about the IC50 (HGFR [3]) of the same molecule?
Answer: 3.4 nM
